Experimental data as given in US20240158406A1, “PIPERAZINE DERIVATIVE AND USE THEREOF IN MEDICINE” (CHENGDU BAIYU PHARMACEUTICAL CO., LTD., priority 2021, published 2024).

Tests used:
NCI-H1373 cells = test: NCI-H1373 cell proliferation inhibition assay; assay type: cell-based; conditions: Homo sapiens, NCI-H1373, 144 h; 6 days of incubation, Cell Titer Blue
Procedure: Human lung adenocarcinoma cells NC-H1373 (ATCC, CRL-5866M) were cultured in a cell incubator at 37° C. and 5% CO2 using RPMI-1640 medium containing 10% FBS and 1% […]. The cells in the logarithmic growth phase were counted by digestion and inoculated in a 96-well plate at 1500 NCI-H1373 per well, and the plate was placed in an incubator overnight. The next day, test compounds were formulated in 10 mM stock solution by using DMSO and 3-fold diluted in gradient from a maximum concentration of 10 μM by using RPMI-1640 medium, and 10 gradient concentrations were set with 2 parallel wells per concentration gradient. After 6 days of incubation, 100 μL of Cell Titer Blue working solution was added to each well and the chemiluminescence value was read in a microplate reader. IC50 was calculated using GraphPad Prism7.0 software.

PARP7 = PARP7 (Homo sapiens (Human), UniProt Q7Z3E1); test: Enzymatic biochemical assay of PARP (chemiluminescence detection kit), PARP7; conditions: read-out: Inhibitory activity against PAPR7 (IC50)
PARP7, sequence (Q7Z3E1 whole entry): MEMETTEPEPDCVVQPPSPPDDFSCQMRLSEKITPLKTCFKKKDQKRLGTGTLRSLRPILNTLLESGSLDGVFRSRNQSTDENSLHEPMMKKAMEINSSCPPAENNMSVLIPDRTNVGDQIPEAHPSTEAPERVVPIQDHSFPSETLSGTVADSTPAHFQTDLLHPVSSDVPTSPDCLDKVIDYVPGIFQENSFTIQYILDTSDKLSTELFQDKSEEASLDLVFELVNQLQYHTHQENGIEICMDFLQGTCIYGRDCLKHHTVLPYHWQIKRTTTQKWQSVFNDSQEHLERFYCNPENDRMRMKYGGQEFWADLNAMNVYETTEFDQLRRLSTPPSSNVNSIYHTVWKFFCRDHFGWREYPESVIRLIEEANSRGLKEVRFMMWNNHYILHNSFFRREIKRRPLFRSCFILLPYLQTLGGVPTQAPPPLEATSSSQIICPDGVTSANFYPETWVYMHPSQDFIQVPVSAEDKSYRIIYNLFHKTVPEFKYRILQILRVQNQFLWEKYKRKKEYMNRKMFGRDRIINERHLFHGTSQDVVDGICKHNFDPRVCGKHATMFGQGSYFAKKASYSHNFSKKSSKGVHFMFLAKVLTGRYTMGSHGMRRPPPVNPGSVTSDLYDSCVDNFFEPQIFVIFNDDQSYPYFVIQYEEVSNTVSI
Procedure: This assay adopted PARP1, TNKS1, TNKS2, PARP7 and PARP14 chemiluminescence detection kits (BPS, Cat No. 80551/80552/80573/80578/79729/80568) for enzymatic biochemical assay of PARP. The specific scheme was as follows: the 1× histone mixture was added to a 96-well plate at 50 μL per well, and the plate was incubated overnight at 4° C. The next day, after the plate was washed with PBST, 200 μL of blocking buffer per well was added, and the plate was incubated for 90 min. After the plate was washed with PBST again, 5 μL of inhibitor, 20 μL of 1×PARP buffer and 25 μL of […] were added to each well, and the plate was incubated at room temperature for 30 min. After the plate was washed with PBST, 100 μL of Elisa ECL substrate A and B mixture was added to each well, chemiluminescence value was immediately read using a plate reader, and IC50 values were calculated.

[1] = Metabolic stability in liver microsome; assay type: in vitro ADME; conditions: liver microsomes; 0.5 mg/mL CD1 mouse liver microsome, 0.5 μM test compound, NADPH and UDPGA, 37° C.
Procedure: 0.5 mg/mL CD1 mouse liver microsome solution, 0.5 μM test compound, 1.0 mM reduced nicotinamide adenine dinucleotide phosphate (NADPH), and 1.0 mM uridine diphosphate-A-glucuronic acid (UDPGA) were added to the incubation plate and mixed, and the plate was incubated at 37° C. for 0, 30, 60, 120 min separately. The positive control group was set as 0.5 μM CYP3A4 probe substrate-testosterone and 0.5 μM UGT probe substrate-7-hydroxycoumarin incubated with microsomes for 0 and 120 min in the presence of NADPH and UDPGA; the negative control group (NC) was set as the test substance incubated with microsomes for 0 and 120 min without any coenzyme. After the reaction was terminated by adding pre-cooled methanol at each termination time, the reaction mixture was centrifuged at 4000 rpm for 10 min, the supernatant was taken and the remaining amount of the parent drug in the sample was measured by LC-MS/MS, the results of which are shown in Table 4.

MDR1 = test: MDCKII-MDR1 cell permeability assay; assay type: in vitro ADME; conditions: dog, MDCK-MDR1, 1 μM test compound; for Papp A→B at 2 h, 1 μM: apical to basolateral; for Papp B→A at 2 h, 1 μM: basolateral to apical
Procedure: 50 μL of MDCKII-MDR1 cell suspension with a density of 1.56×10^6 cells/mL was seeded into a Transwell well of a 96-well plate, and the plate was cultured in a cell incubator at 37° C. in 5% CO2. […] The medium in Transwell was discarded, and HBSS equilibration solution was added and incubated at 37° C. for 30 min. Subsequently, an apical to basolateral drug transport rate assay was performed by adding 1 μM test compound solution to the Transwell AB side and a blank equilibration solution to the BL side. When the basolateral to apical drug transport rate assay was performed, the operation steps were reversed. Subsequently, the cells were placed in an incubator for 2 h. After the incubation, samples were taken from the basolateral and apical respectively, and after centrifugation, the supernatant was subjected to LC-MS/MS analysis, and the apparent permeability coefficient (Papp) was calculated, the results of which are shown in Table 5.

Row | SMILES | IC50 (NCI-H1373 cells) [nM] | IC50 (PARP7) [nM] | other results
1 | [2H]C([2H])(OC[C@H](C)Nc1cn[nH]c(=O)c1C(F)(F)F)c1cc2n(n1)CCN(c1ncc(C(F)(F)F)cn1)C2([2H])[2H] [Compound 2, (S)-4-(trifluoromethyl)-5-((1-((5-(5-(trifluoromethyl)pyrimidin-2-yl)-4,5,6,7-tetrahydropyrazolo[1,5-a]pyrazin-2-yl-4,4-d2)methoxy-d2)propan-2-yl)amino)pyridazin-3(2H)-one] | < 50 | – | –
2 | C[C@H](OC[C@H](C)Nc1cn[nH]c(=O)c1C(F)(F)F)c1cc2n(n1)CCN(c1ncc(C(F)(F)F)cn1)C2 [Compound 3-I, 4-(Trifluoromethyl)-5-(((S)-1-((S)-1-(5-(5-(trifluoromethyl)pyrimidin-2-yl)-4,5,6,7-tetrahydropyrazolo[1,5-a]pyrazin-2-yl)ethoxy)propan-2-yl)amino)pyridazin-3(2H)-one] | < 50 | < 10 | –
3 | C[C@@H](CO[C@H](C)c1cc2n(n1)CCN(c1ncc(C(F)(F)F)cn1)C2)Nc1cn[nH]c(=O)c1C(F)(F)F [Compound 3-II, 4-(Trifluoromethyl)-5-(((S)-1-((R)-1-(5-(5-(trifluoromethyl)pyrimidin-2-yl)-4,5,6,7-tetrahydropyrazolo[1,5-a]pyrazin-2-yl)ethoxy)propan-2-yl)amino)pyridazin-3(2H)-one] | – | 50 to 100 | –
4 | C[C@@H](COCc1cc2n(n1)CCN(c1cnc(C(F)(F)F)cn1)C2)Nc1cn[nH]c(=O)c1C(F)(F)F [Compound 5, (S)-4-(trifluoromethyl)-5-((1-((5-(5-(trifluoromethyl)pyrazin-2-yl)-4,5,6,7-tetrahydropyrazolo[1,5-a]pyrazin-2-yl)methoxy)propan-2-yl)amino)pyridazin-3(2H)-one] | < 50 | < 10 | –
5 | C[C@@H](COCc1nc2n(n1)CCN(c1ncc(C(F)(F)F)cn1)C2)Nc1cn[nH]c(=O)c1C(F)(F)F [Compound 9, (S)-4-(trifluoromethyl)-5-((1-((7-(5-(trifluoromethyl)pyrimidin-2-yl)-5,6,7,8-tetrahydro-[1,2,4]triazolo[1,5-a]pyrazin-2-yl)methoxy)propan-2-yl)amino)pyridazin-3(2H)-one] | < 50 | 10 to 50 | half-life at 0.5 μM [1]: > 0.5 h
6 | C[C@@H](COCc1cc2n(n1)CCN(c1ccc(C(F)(F)F)cn1)C2=O)Nc1cn[nH]c(=O)c1C(F)(F)F [Compound 11, (S)-2-((2-((6-oxo-5-(trifluoromethyl)-1,6-dihydropyridazin-4-yl)amino)propoxy)methyl)-5-(5-(trifluoromethyl)pyridin-2-yl)-6,7-dihydropyrazolo[1,5-a]pyrazin-4(5H)-one] | 50 to 100 | – | half-life at 0.5 μM [1]: > 1.67 h
7 | C[C@@H](COCc1nn2c(c1Cl)CN(c1ncc(C(F)(F)F)cn1)CC2)Nc1cn[nH]c(=O)c1C(F)(F)F [Compound 13, (S)-5-((1-((3-chloro-5-(5-(trifluoromethyl)pyrimidin-2-yl)-4,5,6,7-tetrahydropyrazolo[1,5-a]pyrazin-2-yl)methoxy)propan-2-yl)amino)-4-(trifluoromethyl)pyridazin-3(2H)-one] | < 50 | 10 to 50 | efflux ratio at 2 h, 1 μM (MDR1): 2.28; Papp A→B at 2 h, 1 μM (MDR1): 6.67 ×10⁻⁶ cm/s; Papp B→A at 2 h, 1 μM (MDR1): 14.8 ×10⁻⁶ cm/s
8 | C[C@@H](COCc1nn2c(c1Cl)CN(c1cnc(C(F)(F)F)cn1)CC2)Nc1cn[nH]c(=O)c1C(F)(F)F [Compound 14, (S)-5-((1-((3-chloro-5-(5-(trifluoromethyl)pyrazin-2-yl)-4,5,6,7-tetrahydropyrazolo[1,5-a]pyrazin-2-yl)methoxy)propan-2-yl)amino)-4-(trifluoromethyl)pyridazin-3(2H)-one] | 50 to 100 | – | –
9 | C[C@@H](COCc1nn2c(c1C(F)(F)F)CN(c1ncc(C(F)(F)F)cn1)CC2)Nc1cn[nH]c(=O)c1C(F)(F)F [Compound 19, (S)-4-(trifluoromethyl)-5-((1-((3-(trifluoromethyl)-5-(5-(trifluoromethyl)pyrimidin-2-yl)-4,5,6,7-tetrahydropyrazolo[1,5-a]pyrazin-2-yl)methoxy)propan-2-yl)amino)pyridazin-3(2H)-one] | < 50 | – | –
10 | [2H]C([2H])(OC[C@H](C)Nc1cn[nH]c(=O)c1C(F)(F)F)c1cc2n(n1)CCN(c1cnc(C(F)(F)F)cn1)C2([2H])[2H] [Compound 21, (S)-4-(trifluoromethyl)-5-((1-((5-(5-(trifluoromethyl)pyrazin-2-yl)-4,5,6,7-tetrahydropyrazolo[1,5-a]pyrazin-2-yl-4,4-d2)methoxy-d2)propan-2-yl)amino)pyridazin-3(2H)-one] | < 50 | < 10 | –
11 | [2H]C([2H])(OC[C@H](C)Nc1cn[nH]c(=O)c1C(F)(F)F)c1cc2n(n1)CCN(c1ccc(C#N)cn1)C2([2H])[2H] [Compound 23, (S)-6-(2-((2-((6-oxo-5-(trifluoromethyl)-1,6-dihydropyridazin-4-yl)amino)propoxy)methyl-d2)-6,7-dihydropyrazolo[1,5-a]pyrazin-5(4H)-yl-4,4-d2)nicotinonitrile] | 50 to 100 | – | –
12 | [2H]c1c(COC[C@H](C)Nc2cn[nH]c(=O)c2C(F)(F)F)nn2c1CN(c1ncc(C(F)(F)F)cn1)CC2 [Compound 25, (S)-4-(trifluoromethyl)-5-((1-((5-(5-(trifluoromethyl)pyrimidin-2-yl)-4,5,6,7-tetrahydropyrazolo[1,5-a]pyrazin-2-yl-d)methoxy)propan-2-yl)amino)pyridazin-3(2H)-one] | < 50 | – | –
13 | CC[C@@H](COCc1nc2n(n1)CCN(c1ncc(C(F)(F)F)cn1)C2)Nc1cn[nH]c(=O)c1C(F)(F)F [Compound 37, (S)-4-(trifluoromethyl)-5-((1-((7-(5-(trifluoromethyl)pyrimidin-2-yl)-5,6,7,8-tetrahydro-[1,2,4]triazolo[1,5-a]pyrazin-2-yl)methoxy)butan-2-yl)amino)pyridazin-3(2H)-one] | – | – | half-life at 0.5 μM [1]: > 1.67 h

Second part, led by results:

Row | IC50 (NCI-H1373 cells) [nM] | IC50 (PARP7) [nM] | SMILES | other results
14 | < 50 | – | C[C@@H](COCc1nc2n(n1)CCN(c1ccc(C(F)(F)F)cn1)C2)Nc1cn[nH]c(=O)c1C(F)(F)F [Compound 26, (S)-4-(trifluoromethyl)-5-((1-((7-(5-(trifluoromethyl)pyridin-2-yl)-5,6,7,8-tetrahydro[1,2,4]triazolo[1,5-a]pyrazin-2-yl)methoxy)propan-2-yl)amino)pyridazin-3(2H)one] | half-life at 0.5 μM [1]: > 1.67 h
15 | 50 to 100 | – | O=c1[nH]ncc(N2CCC[C@H]2COCc2nc3n(n2)CCN(c2ncc(C(F)(F)F)cn2)C3)c1C(F)(F)F [Compound 28, (S)-4-(trifluoromethyl)-5-(2-(((7-(5-(trifluoromethyl)pyrimidin-2-yl)-5,6,7,8-tetrahydro-[1,2,4]triazolo[1,5-a]pyrazin-2-yl)methoxy)methyl)pyrrolidin-1-yl)pyridazin-3(2H)-one] | –
16 | 50 to 100 | – | C[C@@H](COCc1cc2n(n1)CCN(c1ncc(C(F)(F)F)s1)C2)Nc1cn[nH]c(=O)c1C(F)(F)F [Compound 30] | –
17 | < 50 | – | CSc1cnc(N2CCn3nc(COC[C@H](C)Nc4cn[nH]c(=O)c4C(F)(F)F)cc3C2)nc1 [Compound 39, (S)-5-((1-((5-(5-(methylthio)pyrimidin-2-yl)-4,5,6,7-tetrahydropyrazolo[1,5-a]pyrazin-2-yl)methoxy)propan-2-yl)amino)-4-(trifluoromethyl)pyridazin-3(2H)-one] | efflux ratio at 2 h, 1 μM (MDR1): 4.09; Papp A→B at 2 h, 1 μM (MDR1): 8.82 ×10⁻⁶ cm/s; Papp B→A at 2 h, 1 μM (MDR1): 35.5 ×10⁻⁶ cm/s
